Measurements reported in patent US7842703B2, “Substituted benzofused derivatives and their use as vanilloid receptor ligands” (Glenmark Pharmaceuticals S.A., priority 2005, dated 2010).
pIC50: −log10 of the molar value. Counter-ions that a name gives are not always drawn.

Target: T1, Human TRPV1 expressing CHO cells (Homo sapiens, UniProt Q8NER1)
T1 construct: expressed in transfected cells; host or cells: CHO cells under G-418 selection
Test: Screening for TRPV1 antagonist using the 45Calcium uptake assay (inhibition of capsaicin induced cellular uptake of radioactive calcium)
Format: cell-based
Settings: for inhibition at 1 µM: CHO; for inhibition at 1 µM / % inhibition of ^45Ca uptake at 1 μM: test compound 1 μM, capsaicin 250 nM, relative to maximum ^45Ca uptake induced by capsaicin alone; for pIC50: inhibition of capsaicin (250 nM) induced ^45Ca uptake
Method: The inhibition of TRPV1 receptor activation was followed as inhibition of capsaicin induced cellular uptake of radioactive calcium which represents calcium influx exclusively through the plasma membrane associated TRPV1 receptor.
Stock solution of capsaicin was made in ethanol and test compounds in 100% DMSO. Stock solutions were diluted to appropriate final concentrations in assay buffer keeping the final DMSO concentration between 0.1% and 0.55%.
^45Ca was used at a final concentration of 2.5 μCi/ml (^45Ca, ICN).
Assay buffer was composed of F-12 DMEM medium supplemented with 1.8 mM CaCl2 (final conc.) and 0.1% Bovine serum albumin. (BSA from SIGMA)
Wash buffer was tyrodes solution supplemented with 0.1% BSA and 1.8 mM calcium. Lysis buffer contained 50 mM Tris-HCl, pH7.5, 150 mM NaCl, 1% Triton X-100, 0.5% deoxycholate and 0.1% Sodium dodicyl sulphate (SDS, SIGMA)
Assay was carried out with some modifications the of procedure as described by Toth et. al. (See Toth A et. al., Life Sciences 73 p 487-498, 2003). Human TRPV1 expressing CHO cells were grown in F-12 DMEM (Dulbecco's modified Eagle's medium—GIBCO) medium with 10% FBS (fetal bovine serum Hyclone), 1% penicillin-streptomycin solution, 400 μg/ml of G-418. Cells were seeded 48 h prior to the assay in 96 well plates so as to get ˜50,000 cells per well on the day of experiment. Plates were incubated at 37° C. in the presence of 5% CO2. Cells were then washed twice with 200 μl of assay buffer and re-suspended in 144 μl of the same. Assay was carried out at 30° C. in total volume of 200 μl. Test compounds were added to the cells fifteen minutes before addition of capsaicin, Final concentration of capsaicin in the assay was 250 nM. After 5 minutes of agonist treatment, drug was washed out and wells rinsed with 300 μl of ice cold wash buffer 3×. The cells were lysed in 50 μl lysis buffer for 20 min. 40 μl of cell lysate was mixed with 150 μl of Microscint PS, left overnight for equilibration. Radioactivity in samples was measured as counts per minute (cpm) using Packard Biosciences Top Count. The drug/vehicle/capsaicin treated ^45Ca uptake values were normalized over basal ^45Ca value. Data was expressed as % inhibition of ^45Ca uptake by test compound with respect to maximum ^45Ca uptake induced by capsaicin alone. IC50 value was calculated from dose response curve by nonlinear regression analysis using GraphPadPRISM software.

T1 sequence (Q8NER1 whole entry): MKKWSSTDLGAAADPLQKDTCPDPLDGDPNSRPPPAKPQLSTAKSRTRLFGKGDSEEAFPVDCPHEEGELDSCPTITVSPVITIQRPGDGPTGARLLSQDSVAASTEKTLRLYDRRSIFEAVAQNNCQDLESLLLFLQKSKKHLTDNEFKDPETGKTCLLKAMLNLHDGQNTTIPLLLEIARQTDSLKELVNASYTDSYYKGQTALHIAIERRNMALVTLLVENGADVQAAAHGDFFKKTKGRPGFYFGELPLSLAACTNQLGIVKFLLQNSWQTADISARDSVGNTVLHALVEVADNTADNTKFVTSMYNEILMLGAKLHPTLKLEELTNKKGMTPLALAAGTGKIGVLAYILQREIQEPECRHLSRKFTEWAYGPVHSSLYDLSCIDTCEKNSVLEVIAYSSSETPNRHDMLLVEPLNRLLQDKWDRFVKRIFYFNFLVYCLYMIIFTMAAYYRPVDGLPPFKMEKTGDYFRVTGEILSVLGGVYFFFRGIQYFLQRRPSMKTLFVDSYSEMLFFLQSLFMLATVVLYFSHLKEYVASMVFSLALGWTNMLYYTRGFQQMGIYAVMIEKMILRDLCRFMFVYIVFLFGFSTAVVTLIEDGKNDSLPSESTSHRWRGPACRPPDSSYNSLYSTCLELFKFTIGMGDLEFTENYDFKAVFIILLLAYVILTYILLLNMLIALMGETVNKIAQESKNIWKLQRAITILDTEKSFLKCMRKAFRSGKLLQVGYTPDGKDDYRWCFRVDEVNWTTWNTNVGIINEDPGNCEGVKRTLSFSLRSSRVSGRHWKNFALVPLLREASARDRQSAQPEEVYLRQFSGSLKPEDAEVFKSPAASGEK

Compound	inhibition at 1 µM [%]	pIC50	% inhibition of ^45Ca uptake at 1 μM [%]
COc1ccc2c(c1)C(NC(=O)Nc1cccc3cnccc13)CC1(CCC1)O2 (racemic) [Example 51, (±) 1-(3,4-Dihydro-6-methoxy-spiro[2H-1-benzopyran-2,1′-cyclobutane]-4-yl)-3-(isoquinolin-5-yl)urea]	> 50	6.23	
O=C(Nc1cccc2nsnc12)NC1CC2(CCC2)Oc2ccccc21 (stereo not shown) [Example 28, N-2,1,3-benzothiadiazol-4-yl-N′-3,3′,4,4′-tetrahydro-2′H-spiro[chromene-2,1′-cyclobutan]-4-ylurea (N-2,1,3-benzothiadiazol-4-yl-N′-3,4-dihydro-2H-spiro[chromene-2,1′-cyclobutan]-4-ylurea)]			<50
O=C(Nc1cccc2cnccc12)NC1CC2(CCC2)Oc2cc(O)ccc21 (racemic) [Example 46, (±) 1-(3,4-Dihydro-7-hydroxy-spiro[2H-1-benzopyran-2,1′-cyclobutane]-4-yl)-3-(isoquinolin-5-yl)urea]	< 50		
O=C(Nc1cccc2c[n+]([O-])ccc12)NC1CC2(CCC2)Oc2ccccc21 (racemic) [Example 9, (±) 1-(3,4-Dihydro-spiro[2H-1-benzopyran-2,1′-cyclobutane]-4-yl)-3-(2-oxoisoquinolin-5-yl)urea]	> 50	6.99	
O=C(Nc1cccc2cnccc12)NC1CC2(CCC2)Oc2ccccc21 (racemic) [Example 3, (±) 1-(3,4-Dihydro-spiro-[2H-1-benzopyran-2,1′-cyclobutan]-4-yl)-3-(isoquinolin-5-ylurea]		8.54	100
N#Cc1cccc2c1OC1(CCC1)CC2NC(=O)Nc1cccc2cnccc12 (racemic) [Example 58, (±) 1-(8-Cyano-3,4-dihydro-spiro[2H-1-benzopyran-2,1′-cyclobutane]-4-yl)-3-(isoquinolin-5-yl)urea]	< 50		
O=C(NCc1cccnc1)NC1CC2(CCC2)Oc2ccccc21 (racemic) [Example 31, (±) 1-(3,4-Dihydro-spiro[2H-1-benzopyran-2,1′-cyclobutan]-4-yl)-3-(pyridin-3-ylmethyl)urea]	< 50		
Cc1cc2c(NC(=O)NC3CC4(CCC4)Oc4ccc(Cl)cc43)cccc2cn1 (racemic) [Example 73, (±) 1-(6-Chloro-3,4-dihydro-spiro[2H-1-benzopyran-2,1′-cyclobutane]-4-yl)-3-(3-methylisoquinolin-5-yl)urea]	> 50	5.90	
O=C(Nc1cccc2cnccc12)NC1CC2(CCC2)Oc2ccc(Cl)cc21 (single isomer, unassigned; (-)) [Example 64, (−) 1-(6-Chloro-3,4-dihydro-spiro[2H-1-benzopyran-2,1′-cyclobutane]-4-yl)-3-(isoquinolin-5-yl)urea]	< 50		
O=C(Nc1cccc2cnccc12)NC1CC2(CCC2)Oc2ccc(F)cc21 (racemic) [Example 42, (±) 1-(3,4-Dihydro-6-fluoro-spiro[2H-1-benzopyran-2,1′-cyclobutane]-4-yl)-3-(isoquinolin-5-yl)urea]	> 50	7.92	
Cn1ncc2cc(NC(=O)NC3CC4(CCC4)Oc4ccccc43)ccc21 (racemic) [Example 13, (±) 1-(3,4-Dihydro-spiro[2H-1-benzopyran-2,1′-cyclobutane]-4-yl)-3-(1-methyl-1H-indazol-5-yl)urea]	> 50	6.83	
O=C(Nc1csc2cnccc12)NC1CC2(CCC2)Oc2ccccc21 (racemic) [Example 20, (±) 1-(3,4-Dihydro-spiro[2H-1-benzopyran-2,1′-cyclobutane]-4-yl)-3-(thieno[2,3-c]pyridine-3-ylurea]			<50
Cc1nccc2c(NC(=O)NC3CC4(CCC4)Oc4ccccc43)cccc12 (racemic) [Example 8, (±) 1-(3,4-Dihydro-spiro[2H-1-benzopyran-2,1′-cyclobutane]-4-yl)-3-(1-methylisoquinolin-5-yl)urea]	> 50	6.26	
O=C(NCc1ccncc1)N[C@H]1CC2(CCC2)Oc2ccccc21 [Example 37]	0		
(±) 1-(3,4-Dihydro-6-fluoro-spiro[2H-1-benzopyran-2,1′-cyclobutane]-4-yl)-3-(isoquinolin-5-yl)urea [Example 50]		8.11	>50
O=C(Nc1cccc2cnccc12)NC1CC2(CCC2)Sc2ccccc21 (racemic) [Example 81, (±) 1-(3,4-dihydro-spiro[2H-1-benzothiopyran-2,1′-cyclobutan]-4-yl)-3-(isoquinolin-5-yl)urea]	> 50	8.28	
O=C(NCc1ccc(C(F)(F)F)cc1)N[C@H]1CC2(CCC2)Oc2ccccc21 [Example 38, 1-((S)-3,4-Dihydrospiro[2H-1-benzopyran-2,1′-cyclobutan]-4-yl)-3-(4-trifluoromethylbenzyl)urea]	10.9		
O=C(NCc1ccccn1)NC1CC2(CCC2)Oc2ccccc21 (racemic) [Example 32, (±) 1-(3,4-Dihydro-spiro[2H-1-benzopyran-2,1′-cyclobutane]-4-yl)-3-(pyridin-2-ylmethyl)urea]	< 50		
O=C(Nc1cccc2c[n+]([O-])ccc12)NC1CC2(CCC2)Oc2ccccc21 (single isomer, unassigned; (+)) [Example 10, (+) 1-(3,4-Dihydro-spiro[2H-1-benzopyran-2,1′-cyclobutane]-4-yl)-3-(2-oxoisoquinolin-5-yl)urea]	> 50	6.98	
(±) 1-(3,4-Dihydro-spiro[2H-1-benzopyran-2,1′-cyclobutane]-4-yl)-3-(6-fluoro-1,3-benzothiazol-2-yl)urea [Example 12]			<50
O=C(Nc1cccc2cnccc12)NC1CC2(CCC2)Oc2cc(OC(F)F)ccc21 (racemic) [Example 54, (±) 1-(7-Difluoromethoxy-3,4-dihydro-spiro[2H-1-benzopyran-2,1′-cyclobutane]-4-yl)-3-(isoquinolin-5-yl)urea. Hydrochloride]	> 50	8.65	
O=C(Nc1cccc2cnccc12)NC1CC2(CCC2)Oc2ccc(F)cc21 (single isomer, unassigned; (-)) [Example 44, (−) 1-(3,4-Dihydro-6-fluorospiro[2H-1-benzopyran-2,1′-cyclobutane]-4-yl)-3-(isoquinolin-5-yl)urea]	< 50		
Cn1cc2cc(NC(=O)NC3CC4(CCC4)Oc4ccccc43)ccc2n1 (racemic) [Example 15, (±) 1-(3,4-Dihydro-spiro[2H-1-benzopyran-2,1′-cyclobutane]-4-yl)-3-(2-methyl-2H-indazol-5-yl)urea]	< 50		
O=C(Nc1cccc2cnccc12)NC1CC2(CCC2)Oc2c(OC(F)F)cccc21 (racemic) [Example 62, (±) 1-(3,4-Dihydro-8-difluoromethoxy-spiro[2H-1-benzopyran-2,1′-cyclobutane]-4-yl)-3-(isoquinolin-5-yl)urea]	< 50		
Nc1ccc2c(c1)C(NC(=O)Nc1cccc3cnccc13)CC1(CCC1)O2 (racemic) [Example 79, (±) 1-(6-Amino-3,4-dihydro-spiro[2H-1-benzopyran-2,1′-cyclobutane]-4-yl)-3-(isoquinolin-5-yl)urea]	< 50		
O=C(Nc1cccc2cnccc12)NC1CC2(CCC2)Oc2c(F)cc(F)cc21 (single isomer, unassigned; (-)) [Example 60, (−) 1-(6,8-Difluoro-3,4-Dihydro-spiro[2H-1-benzopyran-2,1′-cyclobutane]-4-yl)-3-(isoquinolin-5-yl)urea]			<50
O=C(Nc1nnc(-c2ccc(Br)cc2)s1)NC1CC2(CCC2)Oc2ccccc21 (racemic) [Example 21, (±) 1-(3,4-Dihydro-spiro[2H-1-benzopyran-2,1′-cyclobutane]-4-yl)-3-([5-(4-bromophenyl)-1,3,4-thiadiazol-2-yl]-)urea]			<50
Cc1cc2c(cc1Br)C(NC(=O)Nc1cccc3cnccc13)CC1(CCC1)O2 (racemic) [Example 67, (±) 1-(6-Bromo-3,4-dihydro-7-methylspiro[2H-1-benzopyran-2,1′-cyclobutane]-4-yl)-3-(isoquinolin-5-yl)urea]	> 50	6.35	
